Assay results: patent US5968910A, “Compositions containing two or three inhibitors of different HIV reverse transcriptases” (priority 1994, dated 1999)
In brackets after ≈: the same amount, converted by molar mass. Where two headings read alike, the source gives them in different places.

How the values were obtained:
HIV-1/V(0.5) 103-Asn = assay: Sensitivity of mutant HIV-1 strain in CEM cell cultures; format: cell-based
In short: (§1)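 Infect CEM cells (250,000 cells per ml) with virus at 100 CCID50/ml; add infected suspension to wells holding diluted compound; incubate 4 days, 37° C.; examine for syncytia.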

HIV-1/Pyr (181-Cys) = assay: as above; format: cell-based; details: CEM cells, Table 1
In short: as §1

[1] = test system: HIV-1/TIBO R82150 (100-Ile); assay: as above; format: cell-based; details: CEM cells, Table 1
In short: as §1

HIV-1/III(0.1) 103-Asn = assay: as above; format: cell-based; details: Table 5
In short: as §1

HIV-1/II(0.1) 100-Ile = assay: as above; format: cell-based; details: Table 5
In short: as §1

[2] = test system: HIV-1/V(0.1) 101-Ile + 141-Glu; assay: as above; format: cell-based; details: Table 5
In short: as §1

[3] = test system: HIV-1/TIBO R82913 (103-Asn); assay: as above; format: cell-based; details: CEM cells, Table 1
In short: as §1

[4] = test system: HIV-1/TSAO-m^3 T (138-Lys); assay: as above; format: cell-based; details: CEM cells, Table 1
In short: as §1

HIV-1/I(0.1) 103-Asn = assay: as above; format: cell-based; details: Table 5
In short: as §1

HIV-1/Nev (106-Ala) = assay: as above; format: cell-based; details: CEM cells, Table 1
In short: as §1

HIV-1/IV(0.1) 103-Thr = assay: as above; format: cell-based; details: Table 5
In short: as §1

HIV-1(IIIB) (WT) = assay: microbe, parasite or virus in culture; format: cell-based; details: Human immunodeficiency virus 1, IIIB, CCRF-CEM
In short: as §1

HIV-1 RT (WT) = HIV-1 RT (WT) (Human immunodeficiency virus type 1 group M subtype B, UniProt P03366); assay: biochemical; details: IC50, anti-HIV-1 RT (WT) activity
In short: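 Inhibition read as reduced incorporation of [2,8-³H]dGTP (2.95 μM) into acid-precipitable product on a poly(C).oligo(dG) template/primer (0.1 mM). Recombinant RT, test compounds in 5-fold dilutions; 30 min, 37° C, pH 7.8 Tris buffer with 5 mM Mg2+, 150 mM KCl.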

Cc1cn([C@@H]2O[C@H](CO[Si](C)(C)C(C)(C)C)[C@@]3(OS(=O)(=O)C=C3N)[C@H]2O[Si](C)(C)C(C)(C)C)c(=O)n(C)c1=O [TSAO-m^3 T]
EC50 (HIV-1/V(0.5) 103-Asn; Table 5): 0.30 mg/L (≈ 0.497 µM)
fold more inhibitory to HIV-1/III(0.1) than to HIV-1/V(0.5) (HIV-1/V(0.5) 103-Asn; both RT/103-Asn mutants): equally inhibitory to both virus mutants
50% Effective Concentration (HIV-1/Pyr (181-Cys)): 3.0 µg/mL
50% Effective Concentration [1]: 0.05 µg/mL
EC50 (HIV-1/III(0.1) 103-Asn): 0.20 mg/L (≈ 0.331 µM)
EC50 (HIV-1/II(0.1) 100-Ile): 0.37 mg/L (≈ 0.613 µM)
EC50 [2]: 0.06 mg/L (≈ 0.0994 µM)
50% Effective Concentration [3]: 0.15 µg/mL
50% Effective Concentration [4]: > 50 µg/mL
EC50 (HIV-1/I(0.1) 103-Asn): 0.22 mg/L (≈ 0.364 µM)
50% Effective Concentration (HIV-1/Nev (106-Ala)): > 50 µg/mL
EC50 (HIV-1/IV(0.1) 103-Thr): 0.30 mg/L (≈ 0.497 µM)
EC50 (HIV-1(IIIB) (WT); CEM cells, Table 1, read-out: 50% Effective Concentration): 0.03 mg/L (≈ 0.0497 µM)
EC50 (HIV-1(IIIB) (WT); HIV-1 (III8), Table 5, read-out: EC50): 0.03 mg/L (≈ 0.0497 µM)
IC50 (HIV-1 RT (WT)): 4.6 µM
